Results on nine molecules are retold here after ChEMBL document CHEMBL2406968, “Heteroaryl sodium channel inhibitors” (ACS Med Chem Lett, 2013).

Test [1] addresses Sodium channel protein type 11 subunit alpha (Homo sapiens) (UniProt Q9UI33). The experiment in a line: Inhibition of Nav1.9 (unknown origin) expressed in HEK293 cells by automated patch clamp assay. Type of test: cell-based. A general note: In patch-clamp work, channel activity is measured electrically.
For test [2], the target named is Sodium channel protein type 9 subunit alpha (Homo sapiens) (UniProt Q15858). As to the kind of experiment: Inhibition of Nav1.7 (unknown origin) expressed in HEK293 cells by automated patch clamp assay. It counts as cell-based.
Sodium channel protein type 9 subunit alpha (Homo sapiens), sequence (Q15858 whole entry, looked up): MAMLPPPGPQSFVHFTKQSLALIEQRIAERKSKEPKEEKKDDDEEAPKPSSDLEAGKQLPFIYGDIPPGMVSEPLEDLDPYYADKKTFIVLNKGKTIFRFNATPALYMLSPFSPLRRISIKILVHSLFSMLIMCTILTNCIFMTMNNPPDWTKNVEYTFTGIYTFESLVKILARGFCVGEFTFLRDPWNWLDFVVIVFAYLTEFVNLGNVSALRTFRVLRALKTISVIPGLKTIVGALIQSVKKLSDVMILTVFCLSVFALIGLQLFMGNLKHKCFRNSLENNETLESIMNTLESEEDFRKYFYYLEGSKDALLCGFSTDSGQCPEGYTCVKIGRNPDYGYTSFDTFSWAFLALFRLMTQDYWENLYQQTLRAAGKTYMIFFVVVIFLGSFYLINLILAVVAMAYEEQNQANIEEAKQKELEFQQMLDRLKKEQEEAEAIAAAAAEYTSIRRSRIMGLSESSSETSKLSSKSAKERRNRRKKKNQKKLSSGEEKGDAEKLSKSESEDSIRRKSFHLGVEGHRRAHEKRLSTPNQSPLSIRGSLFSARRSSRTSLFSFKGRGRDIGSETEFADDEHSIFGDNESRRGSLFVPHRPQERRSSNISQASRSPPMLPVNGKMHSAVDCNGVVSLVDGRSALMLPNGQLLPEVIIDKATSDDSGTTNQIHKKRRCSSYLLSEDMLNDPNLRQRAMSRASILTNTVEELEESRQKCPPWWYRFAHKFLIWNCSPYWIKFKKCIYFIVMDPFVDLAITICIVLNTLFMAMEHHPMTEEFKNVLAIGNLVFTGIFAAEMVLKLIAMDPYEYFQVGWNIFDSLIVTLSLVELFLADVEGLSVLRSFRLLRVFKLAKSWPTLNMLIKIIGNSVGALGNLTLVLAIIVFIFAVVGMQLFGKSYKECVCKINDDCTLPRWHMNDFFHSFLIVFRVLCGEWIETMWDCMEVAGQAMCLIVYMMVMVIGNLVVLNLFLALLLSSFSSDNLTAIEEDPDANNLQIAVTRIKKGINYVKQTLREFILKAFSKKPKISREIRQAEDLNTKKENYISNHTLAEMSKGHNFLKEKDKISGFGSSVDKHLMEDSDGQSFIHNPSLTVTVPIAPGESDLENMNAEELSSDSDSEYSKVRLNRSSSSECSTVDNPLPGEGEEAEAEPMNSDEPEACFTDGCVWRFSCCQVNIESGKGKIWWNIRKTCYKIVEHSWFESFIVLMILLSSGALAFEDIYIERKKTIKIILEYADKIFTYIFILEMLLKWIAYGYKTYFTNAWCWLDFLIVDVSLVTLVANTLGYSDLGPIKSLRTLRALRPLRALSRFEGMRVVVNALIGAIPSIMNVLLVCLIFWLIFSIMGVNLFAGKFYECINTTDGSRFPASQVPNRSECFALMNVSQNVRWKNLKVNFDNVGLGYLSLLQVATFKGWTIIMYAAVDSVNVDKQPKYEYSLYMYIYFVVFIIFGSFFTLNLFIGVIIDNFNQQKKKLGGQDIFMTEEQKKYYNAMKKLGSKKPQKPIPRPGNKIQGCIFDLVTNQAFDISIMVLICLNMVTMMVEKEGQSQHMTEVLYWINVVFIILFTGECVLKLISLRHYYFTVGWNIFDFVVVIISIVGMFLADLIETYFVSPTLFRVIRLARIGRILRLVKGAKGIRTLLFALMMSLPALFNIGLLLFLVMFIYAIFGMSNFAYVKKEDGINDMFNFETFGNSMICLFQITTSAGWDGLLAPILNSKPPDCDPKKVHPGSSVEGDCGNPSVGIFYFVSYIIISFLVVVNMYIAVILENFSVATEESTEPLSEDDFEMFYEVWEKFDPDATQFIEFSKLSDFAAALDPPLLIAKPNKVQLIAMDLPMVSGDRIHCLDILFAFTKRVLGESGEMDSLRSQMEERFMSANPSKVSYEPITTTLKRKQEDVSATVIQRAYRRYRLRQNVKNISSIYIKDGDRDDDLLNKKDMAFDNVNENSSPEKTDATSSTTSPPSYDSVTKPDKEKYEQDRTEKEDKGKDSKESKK

Sodium channel protein type 11 subunit alpha (Homo sapiens), sequence (Q9UI33 whole entry): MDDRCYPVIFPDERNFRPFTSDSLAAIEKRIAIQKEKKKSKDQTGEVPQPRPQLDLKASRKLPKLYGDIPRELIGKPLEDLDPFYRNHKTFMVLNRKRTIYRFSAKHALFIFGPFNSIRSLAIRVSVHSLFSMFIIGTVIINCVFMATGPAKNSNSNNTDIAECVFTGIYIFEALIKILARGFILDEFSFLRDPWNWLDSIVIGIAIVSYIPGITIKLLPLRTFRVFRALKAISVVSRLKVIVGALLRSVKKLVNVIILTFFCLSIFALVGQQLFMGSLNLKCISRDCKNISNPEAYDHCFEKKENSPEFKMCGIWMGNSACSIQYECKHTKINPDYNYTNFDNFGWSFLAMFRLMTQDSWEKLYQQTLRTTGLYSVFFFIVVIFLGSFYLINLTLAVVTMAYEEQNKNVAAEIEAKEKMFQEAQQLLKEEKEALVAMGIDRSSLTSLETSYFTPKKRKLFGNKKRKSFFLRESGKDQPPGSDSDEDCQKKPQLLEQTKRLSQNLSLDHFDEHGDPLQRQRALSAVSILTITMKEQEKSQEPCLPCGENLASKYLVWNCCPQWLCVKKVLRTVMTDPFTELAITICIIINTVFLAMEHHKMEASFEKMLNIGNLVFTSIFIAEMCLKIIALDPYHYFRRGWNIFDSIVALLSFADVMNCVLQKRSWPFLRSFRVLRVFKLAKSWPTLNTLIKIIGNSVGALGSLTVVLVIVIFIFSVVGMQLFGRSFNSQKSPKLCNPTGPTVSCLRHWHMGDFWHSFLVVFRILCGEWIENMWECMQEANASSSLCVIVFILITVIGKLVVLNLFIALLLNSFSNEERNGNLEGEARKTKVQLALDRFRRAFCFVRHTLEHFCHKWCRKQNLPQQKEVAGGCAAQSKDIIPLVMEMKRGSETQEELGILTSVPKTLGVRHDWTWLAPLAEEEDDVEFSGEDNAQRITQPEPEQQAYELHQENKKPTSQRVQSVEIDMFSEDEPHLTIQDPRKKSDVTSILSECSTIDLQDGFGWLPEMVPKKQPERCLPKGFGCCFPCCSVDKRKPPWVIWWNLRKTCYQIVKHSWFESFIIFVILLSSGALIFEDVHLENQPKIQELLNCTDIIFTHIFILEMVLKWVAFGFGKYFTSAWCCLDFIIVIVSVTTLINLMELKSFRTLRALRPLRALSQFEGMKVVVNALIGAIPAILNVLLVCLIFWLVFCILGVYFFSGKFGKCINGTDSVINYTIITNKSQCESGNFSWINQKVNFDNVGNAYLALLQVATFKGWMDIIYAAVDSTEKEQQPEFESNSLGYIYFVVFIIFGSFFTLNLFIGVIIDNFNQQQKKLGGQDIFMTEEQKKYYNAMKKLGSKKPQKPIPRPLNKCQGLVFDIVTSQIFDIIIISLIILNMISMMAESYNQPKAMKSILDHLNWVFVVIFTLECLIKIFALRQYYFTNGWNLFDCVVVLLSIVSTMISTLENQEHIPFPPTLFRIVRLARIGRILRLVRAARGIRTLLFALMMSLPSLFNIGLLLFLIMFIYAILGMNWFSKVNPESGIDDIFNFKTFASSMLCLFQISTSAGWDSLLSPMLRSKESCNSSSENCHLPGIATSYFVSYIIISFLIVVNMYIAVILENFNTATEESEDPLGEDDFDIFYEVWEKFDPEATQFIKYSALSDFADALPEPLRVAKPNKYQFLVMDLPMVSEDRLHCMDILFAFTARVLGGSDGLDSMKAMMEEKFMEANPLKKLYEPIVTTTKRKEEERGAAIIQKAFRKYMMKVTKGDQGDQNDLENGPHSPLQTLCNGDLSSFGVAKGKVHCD

For `CC(=O)n1cc(-c2ccc(C(F)(F)F)cc2-c2ccnn2C)c2ccc(S(=O)(=O)Nc3ncns3)cc21`, the INH is more than 10 µM in test [1] and 0.0505 µM in test [2].
For the molecule `Cn1nccc1-c1cc(C(F)(F)F)ccc1-c1cn(C)c2cc(S(=O)(=O)Nc3ncns3)ccc12`, the INH in test [1] was more than 10 µM; in test [2], 0.147 µM.
Regarding `Cn1nccc1-c1cc(Cl)ccc1-c1cn(C)c2cc(S(=O)(=O)Nc3ncns3)ccc12`, the INH in test [1] is more than 10 µM; in test [2], 0.253 µM.
For `Cn1cc(-c2ccc(C(F)(F)F)cc2C2=CCNCC2)c2ccc(S(=O)(=O)Nc3ncns3)cc21` the same measures were more than 10 µM and 0.0425 µM.
With `Cn1cc(-c2ccc(C(F)(F)F)cc2-c2ccnn2C2CNC2)c2ccc(S(=O)(=O)Nc3ncns3)cc21`, the values for the INH in test [1] and in test [2] were more than 10 µM and 0.263 µM, respectively.
With `Cn1cc(-c2ccc(C(F)(F)F)cc2-c2ccncc2)c2ccc(S(=O)(=O)Nc3ncns3)cc21`, the INH in test [1] is more than 10 µM; in test [2], 0.05 µM.
For the molecule `Cn1cc(-c2cccc3ccccc23)c2ccc(S(=O)(=O)Nc3ncns3)cc21`, the INH is more than 10 µM in test [1] and 0.306 µM in test [2].
With `Cn1cc(-c2ccc(C(F)(F)F)cc2-c2ccn[nH]2)c2ccc(S(=O)(=O)Nc3ncns3)cc21`, the INH in test [1] is more than 10 µM; in test [2], 0.0375 µM.
As for `Cn1cc(-c2cccc3c2CCNC3)c2ccc(S(=O)(=O)Nc3ncns3)cc21`, the results for the INH in test [1] and in test [2] were more than 10 µM and 0.292 µM, respectively.
